Measurements from patent EP4389113A1, “DOSAGE FORM FOR INTRAMEDULLARY INJECTION OR IMPLANTATION COMPRISING ELTROMBOPAG FOR USE IN THE IMPROVEMENT OF HEMATOPOIETIC STEM CELL TRANSPLANTATION” (PK MED, priority 2022, dated 2024).

How the values were obtained:
[1] = after oral administration of a 50 mg tablet; cited from earlier work
human MMP-9 = biological target: T1, human MMP-9 (Homo sapiens, UniProt P14780); assay: Proteolysis of SDF-1α by activated MMP-9, multiplex western blot; assay type: biochemical
T1 construct: made in house; host or cells: Sf9 cells
Protocol: (§1) • Particle size was determined using a Malvern Mastersizer MS3000 laser diffraction particle size analyzer. A 1 mg/ml microparticles in deionized water preparation was introduced in the apparatus and the measurement run 3 times. The results shown in the examples are the mean of the three measures. • Eltrombopag microparticle drug load was determined by first solubilizing 10 mg of drug-loaded polymeric microparticles in 2,5 mL of an acetonitrile/water mixture at a 80/20 v/v ratio. The medium was then centrifuged for 15 min at 4000 rpm and the supernatant filtrated through a 0.45 µm PTFE filter (Acrodisc PTFE). A 2 ml aliquot of the filtrated supernatant was then analyzed by HPLC to determine the microparticle drug load. HPLC analysis was conducted using a silica-based reversed-phase C18 column [Kinetex C18, 100mm × 4,6 mm, 2,6 µm particle size] and a mobile phase consisting in [acetonitrile/ammonium formate (10 mM) 80/20 v/v adjusted at pH 2]. The flow rate was set at 0,5 mL/min, the injection volume was 10µL and the UV detection was set at 244 nm. • For incubation of Eltrombopag olamine with activated human proteases, proMMP-8 and pro MMP-9 proteases were first activated. Human proMMP-8 (Cat. no. 908-MP, R&D systems) at 100 µg/ml in buffer containing 50 mM Tris, 150 mM NaCl (sodium chloride), 5 mM CaCl2 (calcium chloride) and 0.01% tween 20 (pH 7.6) was activated by incubation with 1 mM p-aminophenylmercuric acetate for 1h at 37°C. Human proMMP-9 was expressed in Sf9 cells, purified by gelatin-sepharose chromatography and activated by incubation with the catalytic domain of MMP-3 (cat. No. 444217, Merck Millipore). Specifically, human proMMP-9 at 920 µg/ml in the same described buffer as for MMP-8 activation was incubated with the catalytic domain of MMP-3 at a molar ratio of 1/100 (MMP-3/MMP-9) for 2h at 37°C in. The final concentration of MMP-9 was 10 µM and the final concentration of MMP-3 was 0.1 µM. Concentrated eltrombopag olamine solution was prepared by solubilization in water at a concentration of 10 mg/ml for 24h on rotor at 4°C, and further diluted at the final concentration needed. Activated MMP-8 or MMP-9 were then incubated at a final concentration of 625 nM in Eltrombopag olamine at different concentrations (50 µM, 10 µM, 1 µM and 0.1 µM) in a final volume of 3µl for 30 minutes at 37°C in calcium-free buffer containing 50 mM Tris, 150 mM NaCl, 0.01% tween 20 (pH 7.6) using low protein-binding tubes (Protein LoBind tubes, Eppendorf). • Incubation of human SDF-1α (Cat. no. 300-28A, Peprotech) in the solution containing the activated human proteases and eltrombopag olamine was done at a MMP/SDF-1 molar ratio of 1/5 in the same calcium-free buffer and tubes described, with a final SDF-1 α concentration of 3.125 µM and a final volume of 4µl at 37°C for 2h. A negative control without eltrombopag olamine was similarly prepared. • SDF-1 proteolysis was analyzed by multiplex western blot. All samples were diluted in reducing loading buffer (10% β-mercaptoethanol, 0.1% bromophenol blue, 4% SDS (sodium dodecyl sulfate), 20% glycerol, 125 mM Tris, pH 6.8) and boiled at 90°C for 20 min. Next, the equivalent of 100 ng SDF-1 was loaded onto Novex 16% tricine gels (Cat. no. EC6695BOX, Invitrogen). The Chameleon Duo Pre-stained Protein Ladder was used as a molecular weight using 6ul in one well. Proteins in the samples were separated by denaturing SDS-PAGE using tricine running buffer (100 mM Tris, 100 mM Tricine, 0.1% SDS, pH 8.3) under a constant voltage of 120V (±60 min). After electrophoresis, proteins were transferred to polyvinylidene difluoride (PVDF) membranes with the Trans-Blot Turbo Transfer System (Biorad) with Trans-Blot Turbo RTA Mini 0.45 µm low fluorescence PVDF Transfer Kit (Cat. No. 1704274, Biorad). […]

human MMP-8 = biological target: T2, human MMP-8 (Homo sapiens, UniProt P22894); assay: Proteolysis of SDF-1α by activated MMP-8, multiplex western blot; assay type: biochemical
T2 construct: purchased R&D systems 908-MP
Protocol: as §1

[2] = SDF-1 plus MMP-9 plus 0.1 µM eltrombopag olamine
[3] = SDF-1 plus MMP-9 plus 1 µM eltrombopag olamine
[4] = SDF-1 plus MMP-9 plus 10 µM eltrombopag olamine
[5] = SDF-1 plus MMP-9 plus 50 µM eltrombopag olamine
[6] = SDF-1 plus MMP-8 plus 0.1 µM eltrombopag olamine
[7] = SDF-1 plus MMP-8 plus 1 µM eltrombopag olamine
[8] = SDF-1 plus MMP-8 plus 10 µM eltrombopag olamine
[9] = SDF-1 plus MMP-8 plus 50 µM eltrombopag olamine

T2 sequence (P22894 101-467): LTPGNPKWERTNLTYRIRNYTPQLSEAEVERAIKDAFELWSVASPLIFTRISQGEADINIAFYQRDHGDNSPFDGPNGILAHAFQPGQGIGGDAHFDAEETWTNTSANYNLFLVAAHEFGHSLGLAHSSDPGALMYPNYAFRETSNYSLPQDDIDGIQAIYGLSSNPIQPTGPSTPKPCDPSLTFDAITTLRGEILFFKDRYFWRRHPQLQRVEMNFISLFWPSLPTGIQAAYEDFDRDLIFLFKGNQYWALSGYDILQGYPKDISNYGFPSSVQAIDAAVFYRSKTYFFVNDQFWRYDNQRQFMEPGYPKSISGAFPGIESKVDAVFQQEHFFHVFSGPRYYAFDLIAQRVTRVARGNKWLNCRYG
T1 sequence (P14780 107-707 limits assumed): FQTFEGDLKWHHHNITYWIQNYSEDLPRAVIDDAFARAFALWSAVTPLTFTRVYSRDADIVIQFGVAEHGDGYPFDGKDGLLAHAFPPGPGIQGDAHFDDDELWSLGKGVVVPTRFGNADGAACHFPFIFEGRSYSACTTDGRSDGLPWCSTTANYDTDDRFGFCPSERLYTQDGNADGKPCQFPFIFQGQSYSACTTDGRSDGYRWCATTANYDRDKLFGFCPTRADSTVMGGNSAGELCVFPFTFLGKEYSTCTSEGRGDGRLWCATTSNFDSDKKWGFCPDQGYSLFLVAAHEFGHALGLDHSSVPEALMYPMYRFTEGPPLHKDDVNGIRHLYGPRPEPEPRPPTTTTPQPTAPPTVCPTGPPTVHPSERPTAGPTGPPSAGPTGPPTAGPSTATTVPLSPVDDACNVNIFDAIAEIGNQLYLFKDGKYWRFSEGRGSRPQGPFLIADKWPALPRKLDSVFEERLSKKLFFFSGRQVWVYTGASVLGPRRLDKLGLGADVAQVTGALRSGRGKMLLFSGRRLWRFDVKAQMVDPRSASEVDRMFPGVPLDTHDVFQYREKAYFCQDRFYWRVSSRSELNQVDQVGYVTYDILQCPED

CC1=NN(c2ccc(C)c(C)c2)C(=O)/C1=N\Nc1cccc(-c2cccc(C(=O)O)c2)c1O [EPAG, 3'-[(2Z)-[1-(3,4-dimethylphenyl)-1,5-dihydro-3-methyl-5-oxo-4H-pyrazol-4-ylidene]hydrazino]-2'-hydroxy-[1,1'-biphenyl]-3-carboxylic acid]
maximum plasmatic concentration [1]: 14 µM

CC1=NN(c2ccc(C)c(C)c2)C(=O)/C1=N\Nc1cccc(-c2cccc(C(=O)O)c2)c1O.NCCO.NCCO [eltrombopag olamine, 3'-{(2Z)-2-[1-(3,4-dimethylphenyl)-3-methyl-5-oxo-1,5-dihydro-4H-pyrazol-4-ylidene]hydrazino}-2'-hydroxy-3-biphenylcarboxylic acid - 2-aminoethanol (1:2)]
intact SDF-1α retrieved (human MMP-9; MMP-9 in the presence of 50 µM eltrombopag olamine, only 20% in its absence): 72% | N-term intact SDF-1α (RFUs) (human MMP-9; [2]): 0,013 RFUs | Ratio of intact/total SDF-1α (human MMP-9; [2]): 0,003 | Total SDF-1α (RFUs) (human MMP-9; [2]): 3,951 RFUs | N-term intact SDF-1α (RFUs) (human MMP-9; [3]): 0,012 RFUs | Ratio of intact/total SDF-1α (human MMP-9; [3]): 0,003 | Total SDF-1α (RFUs) (human MMP-9; [3]): 3,644 RFUs | N-term intact SDF-1α (RFUs) (human MMP-9; [4]): 0,010 RFUs | Ratio of intact/total SDF-1α (human MMP-9; [4]): 0,002 | Total SDF-1α (RFUs) (human MMP-9; [4]): 4,142 RFUs | Ratio of intact/total SDF-1α (human MMP-9; [5]): 0,007 | Total SDF-1α (RFUs) (human MMP-9; [5]): 4,687 RFUs | N-term intact SDF-1α (RFUs) (human MMP-9; SDF-1 plus MMP-9 plus 50 µM eltrombopag olamine, MMP/SDF-1α molar ratio 1/5, 37°C, 2h): 0,033 RFUs | intact SDF-1α retrieved (human MMP-8; MMP-8 in the presence of 50 µM eltrombopag olamine, only 3.5% in its absence): 30% | N-term intact SDF-1α (RFUs) (human MMP-8; [6]): 0,0006 RFUs | Ratio of intact/total SDF-1α (human MMP-8; [6]): 0,0001 | Total SDF-1α (RFUs) (human MMP-8; [6]): 7,501 RFUs | N-term intact SDF-1α (RFUs) (human MMP-8; [7]): 0,0001 RFUs | Ratio of intact/total SDF-1α (human MMP-8; [7]): 0,0000 | Total SDF-1α (RFUs) (human MMP-8; [7]): 7,986 RFUs | N-term intact SDF-1α (RFUs) (human MMP-8; [8]): 0,0001 RFUs | Ratio of intact/total SDF-1α (human MMP-8; [8]): 0,0000 | Total SDF-1α (RFUs) (human MMP-8; [8]): 6,989 RFUs | Ratio of intact/total SDF-1α (human MMP-8; [9]): 0,0002 | Total SDF-1α (RFUs) (human MMP-8; [9]): 10,430 RFUs | N-term intact SDF-1α (RFUs) (human MMP-8; SDF-1 plus MMP-8 plus 50 µM eltrombopag olamine, MMP/SDF-1α molar ratio 1/5, 37°C, 2h): 0,0020 RFUs
